In ChEMBL document CHEMBL5120838, “Synthesis and biological evaluation of geniposide derivatives as inhibitors of hyperuricemia, inflammatory and fibrosis” (Eur J Med Chem, 2022):
Active and inactive are the calls of the source. No cut-off for these calls is given here.

How the values were obtained:
Mus musculus [1] = assay: Nephroprotective activity against adenine and potassium oxonate-induced hyperuricemia Kunming mouse model assessed as appearance of clear tubular structures at 20 mg/kg, po administered via gavage and measured after 21 days by hematoxylin-eosin and Masson trichrome staining based optical microscopic analysis; type: functional, organism-based; settings: time 21.0 day
HK-2 [2] = assay: Cytoprotective activity in human HK-2 cells assessed as reduction in uric acid-induced cell remodeling by inverted light microscopic analysis; type: functional, cell-based; settings: dose 12.5-100 µM
Mus musculus [3] = assay: Anti-hyperuricemic activity against adenine and potassium oxonate-induced hyperuricemia Kunming mouse model assessed as reduction in serum uric acid level at 20 mg/kg, po administered via gavage once daily for 2 weeks (reference value: 318.16 +/- 3.31 uM); type: functional
Mus musculus [4] = assay: Renal protective activity against adenine and potassium oxonate-induced hyperuricemia Kunming mouse model assessed as reduction in renal inflammation by measuring reduction in TNF-alpha expression at 5 to 20 mg/kg, po administered via gavage for 2 weeks by Western blot analysis; type: functional, organism-based; settings: dose 5-20 mg/kg
[5] = Stability in simulated intestinal fluid assessed as parent compound remaining incubated for 4 hrs by HPLC analysis; type: ADME; settings: read-out: Stability
Mus musculus [6] = assay: Nephroprotective activity against adenine and potassium oxonate-induced hyperuricemia Kunming mouse model assessed as reduction in connective tissue hyperplasia at 20 mg/kg, po administered via gavage and measured after 21 days by hematoxylin-eosin and Masson trichrome staining based optical microscopic analysis; type: functional, organism-based; settings: time 21.0 day
Mus musculus [7] = assay: Renal protective activity against adenine and potassium oxonate-induced hyperuricemia Kunming mouse model assessed as reduction in renal inflammation by measuring reduction in NF-kappaB expression at 5 to 20 mg/kg, po administered via gavage for 2 weeks by Western blot analysis; type: functional, organism-based; settings: dose 5-20 mg/kg
HK-2 [8] = assay: Antiinflammatory activity in hyperuricemic human HK-2 cells assessed as reduction in TNF-alpha level at 12.5 to 100 uM; type: functional, cell-based; settings: dose 12.5-100 µM
Mus musculus [9] = assay: Anti-hyperuricemic activity against adenine and potassium oxonate-induced hyperuricemia Kunming mouse model assessed as reduction in creatinine level at 10 mg/kg, po administered via gavage once daily for 4 weeks (reference value: 76.87 +/- 0.67 uM); type: functional
Mus musculus [10] = assay: Renal protective activity against adenine and potassium oxonate-induced hyperuricemia Kunming mouse model assessed as reduction in hyperuricemia-induced renal fibrosis by measuring tubular dilation with epithelial atrophy at 5 to 20 mg/kg, po administered via gavage for 2 weeks by Masson trichrome staining based optical microscopic analysis; type: functional, organism-based; settings: dose 5-20 mg/kg
Mus musculus [11] = assay: Renal protective activity against adenine and potassium oxonate-induced hyperuricemia Kunming mouse model assessed as reduction in renal inflammation by measuring reduction in IkappaBalpha expression at 5 to 20 mg/kg, po administered via gavage for 2 weeks by Western blot analysis; type: functional, organism-based; settings: dose 5-20 mg/kg
Mus musculus [12] = assay: Anti-hyperuricemic activity against adenine and potassium oxonate-induced hyperuricemia Kunming mouse model assessed as reduction in creatinine level at 5 mg/kg, po administered via gavage once daily for 4 weeks (reference value: 76.87 +/- 0.67 uM); type: functional
HK-2 [13] = assay: Antiinflammatory activity in hyperuricemic human HK-2 cells assessed as reduction in IL-1beta level at 12.5 to 100 uM; type: functional, cell-based; settings: dose 12.5-100 µM
Mus musculus [14] = assay: Anti-hyperuricemic activity against adenine and potassium oxonate-induced hyperuricemia Kunming mouse model assessed as blood urea nitrogen level at 20 mg/kg, po administered via gavage once daily for 4 weeks (reference value: 15.25 +/- 1.21 mM); type: functional
Mus musculus [15] = assay: Anti-hyperuricemic activity against adenine and potassium oxonate-induced hyperuricemia Kunming mouse model assessed as blood urea nitrogen level at 20 mg/kg, po administered via gavage once daily for 2 weeks (reference value: 9.88 +/- 1.21 mM); type: functional
Mus musculus [16] = assay: Anti-hyperuricemic activity against adenine and potassium oxonate-induced hyperuricemia Kunming mouse model assessed as blood urea nitrogen level at 10 mg/kg, po administered via gavage once daily for 4 weeks (reference value: 15.25 +/- 1.21 mM); type: functional
Mus musculus [17] = assay: Renal protective activity against po dosed adenine and potassium oxonate-induced hyperuricemia Kunming mouse model assessed as reduction in urate accumulation in kidney administered via gavage for 2 weeks by polarization microscopic analysis; type: functional, organism-based; settings: dose 5-20 mg/kg, DDE = dose-dependent effect
Mus musculus [18] = assay: Anti-hyperuricemic activity against adenine and potassium oxonate-induced hyperuricemia Kunming mouse model assessed as reduction in serum uric acid level at 20 mg/kg, po administered via gavage once daily for 4 weeks (reference value: 356.15 +/- 3.31 uM); type: functional
[19] = target: T1, Xanthine dehydrogenase/oxidase (Bos taurus, UniProt P80457); assay: Mixed type inhibition of bovine XOD assessed as decrease in Vmax with increase in Km at upto 20 uM using varying levels of xanthine as substrate by Lineweaver-Burk plot analysis; settings: cattle
T1 sequence (P80457 whole entry): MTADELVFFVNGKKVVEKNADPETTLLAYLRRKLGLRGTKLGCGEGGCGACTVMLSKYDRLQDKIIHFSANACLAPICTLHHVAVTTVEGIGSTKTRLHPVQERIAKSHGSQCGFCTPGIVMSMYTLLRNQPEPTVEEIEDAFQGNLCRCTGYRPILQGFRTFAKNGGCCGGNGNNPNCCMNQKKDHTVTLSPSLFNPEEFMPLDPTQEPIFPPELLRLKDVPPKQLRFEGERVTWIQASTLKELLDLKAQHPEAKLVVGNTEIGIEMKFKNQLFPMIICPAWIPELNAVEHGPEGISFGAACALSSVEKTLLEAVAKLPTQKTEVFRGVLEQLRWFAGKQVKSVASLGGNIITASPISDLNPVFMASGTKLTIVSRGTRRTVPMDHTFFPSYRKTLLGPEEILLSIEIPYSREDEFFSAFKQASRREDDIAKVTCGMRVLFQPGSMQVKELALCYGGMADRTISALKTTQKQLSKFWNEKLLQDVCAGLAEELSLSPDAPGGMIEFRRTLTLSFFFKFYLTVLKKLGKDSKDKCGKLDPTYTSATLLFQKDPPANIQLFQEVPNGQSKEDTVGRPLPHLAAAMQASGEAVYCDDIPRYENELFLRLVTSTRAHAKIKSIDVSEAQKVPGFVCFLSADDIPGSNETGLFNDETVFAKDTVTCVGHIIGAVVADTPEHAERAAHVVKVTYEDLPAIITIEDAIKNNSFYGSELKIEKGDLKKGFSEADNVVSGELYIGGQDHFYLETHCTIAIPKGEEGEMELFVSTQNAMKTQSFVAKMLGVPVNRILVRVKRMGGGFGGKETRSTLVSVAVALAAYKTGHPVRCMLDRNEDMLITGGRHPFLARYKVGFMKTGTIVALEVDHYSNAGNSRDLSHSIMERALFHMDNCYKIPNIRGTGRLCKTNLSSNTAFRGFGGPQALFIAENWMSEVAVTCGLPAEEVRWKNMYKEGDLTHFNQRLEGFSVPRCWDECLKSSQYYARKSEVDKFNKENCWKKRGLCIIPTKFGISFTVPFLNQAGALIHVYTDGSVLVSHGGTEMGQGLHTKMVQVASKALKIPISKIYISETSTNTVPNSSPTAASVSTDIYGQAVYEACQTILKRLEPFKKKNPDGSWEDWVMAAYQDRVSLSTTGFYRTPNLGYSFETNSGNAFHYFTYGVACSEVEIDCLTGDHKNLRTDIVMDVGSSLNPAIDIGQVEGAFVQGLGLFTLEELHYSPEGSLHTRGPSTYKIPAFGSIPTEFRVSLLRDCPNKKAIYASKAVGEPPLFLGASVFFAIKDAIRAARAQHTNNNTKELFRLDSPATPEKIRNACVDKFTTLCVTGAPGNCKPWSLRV

Mus musculus [20] = assay: Renal protective activity against adenine and potassium oxonate-induced hyperuricemia Kunming mouse model assessed as reduction in IL-1beta expression in kidney at 5 to 20 mg/kg, po administered via gavage for 2 weeks by ELISA relative to control; type: functional; design: scale not given: the % may be the effect or the level left; settings: dose 5-20 mg/kg
Mus musculus [21] = assay: Anti-hyperuricemic activity against adenine and potassium oxonate-induced hyperuricemia Kunming mouse model assessed as reduction in creatinine level at 20 mg/kg, po administered via gavage once daily for 4 weeks (reference value: 76.87 +/- 0.67 uM); type: functional
[22] = target: T1, Xanthine dehydrogenase/oxidase; assay: Inhibition of bovine XOD assessed as inhibition of uric acid formation using xanthine as substrate preincubated with enzyme for 5 mins followed by substrate addition and measured for 30 mins by microplate reader analysis
Mus musculus [23] = assay: Nephroprotective activity against adenine and potassium oxonate-induced hyperuricemia Kunming mouse model assessed as reduction in neutrophils infiltrations at 20 mg/kg, po administered via gavage and measured after 21 days by hematoxylin-eosin and Masson trichrome staining based optical microscopic analysis; type: functional, organism-based; settings: time 21.0 day
HK-2 [24] = assay: Inhibition of epithelial-mesenchymal transition in human HK-2 cells assessed as downregulation of uric acid-induced alpha-SMA protein expression by Western blot analysis; type: functional, cell-based; settings: dose 12.5-100 µM, DDE = dose-dependent effect
Mus musculus [25] = assay: Anti-hyperuricemic activity against adenine and potassium oxonate-induced hyperuricemia Kunming mouse model assessed as blood urea nitrogen level at 5 mg/kg, po administered via gavage once daily for 4 weeks (reference value: 15.25 +/- 1.21 mM); type: functional
HK-2 [26] = assay: Antiinflammatory activity in hyperuricemic human HK-2 cells assessed as reduction in TGF-beta level at 12.5 to 100 uM; type: functional, cell-based; settings: dose 12.5-100 µM
[27] = Stability in simulated gastric fluid assessed as parent compound remaining incubated for 4 hrs by HPLC analysis; type: ADME; settings: read-out: Stability
Mus musculus [28] = assay: Renal protective activity against adenine and potassium oxonate-induced hyperuricemia Kunming mouse model assessed as reduction in extracellular matrix protein deposition by measuring interstitial expansion with collagen accumulation at 5 to 20 mg/kg, po administered via gavage for 2 weeks by Masson trichrome staining based optical microscopic analysis; type: functional, organism-based; settings: dose 5-20 mg/kg
Mus musculus [29] = assay: Anti-hyperuricemic activity against adenine and potassium oxonate-induced hyperuricemia Kunming mouse model assessed as reduction in serum uric acid level at 10 mg/kg, po administered via gavage once daily for 4 weeks (reference value: 356.15 +/- 3.31 uM); type: functional
Mus musculus [30] = assay: In vivo inhibition of XOD in po dosed adenine and potassium oxonate-induced hyperuricemia Kunming mouse model assessed as reduction in XOD activity in liver administered via gavage once daily for 2 weeks; type: functional, organism-based; settings: dose 5-20 mg/kg, DDE = dose-dependent effect
Mus musculus [31] = assay: Renal protective activity against adenine and potassium oxonate-induced hyperuricemia Kunming mouse model assessed as reduction in hyperuricemia-induced renal fibrosis by measuring reduction in alpha-SMA expression in kidney at 5 to 20 mg/kg, po administered via gavage for 2 weeks by immunoblot analysis; type: functional, organism-based; settings: dose 5-20 mg/kg

Question: For `CC(=O)OCC1=CC[C@@H]2C(C(=O)Nc3ncco3)=CO[C@@H](O[C@@H]3O[C@H](COC(C)=O)[C@@H](OC(C)=O)[C@H](OC(C)=O)[C@H]3OC(C)=O)[C@H]12`, which Activity (Mus musculus [1]) is on record?
Answer: The Activity was “Active”.

Question: And the Activity (HK-2 [2])?
Answer: The Activity was “Active”.

Question: What about the Activity (Mus musculus [3]) of the same compound?
Answer: The Activity was 235.87 µM.

Question: And the Activity (Mus musculus [4])?
Answer: Its Activity is “Active”.

Question: What about the remaining at 4 h [5] of the same compound?
Answer: The remaining at 4 h was 53.3%.

Question: And the Activity (Mus musculus [6])?
Answer: The Activity was “Active”.

Question: What about the Activity (Mus musculus [7]) of the same compound?
Answer: Its Activity is “Active”.

Question: And the Activity (HK-2 [8])?
Answer: The Activity was “Active”.

Question: What about the Activity (Mus musculus [9]) of the same compound?
Answer: Its Activity is 47.17 µM.

Question: And the Activity (Mus musculus [10])?
Answer: The Activity was “Active”.

Question: And the Activity (Mus musculus [11])?
Answer: The Activity was “Active”.

Question: What about the Activity (Mus musculus [12]) of the same compound?
Answer: The Activity was 54.79 µM.

Question: And the Activity (HK-2 [13])?
Answer: Its Activity is “Active”.

Question: And the Activity (Mus musculus [14])?
Answer: The Activity was 8.02 mM.

Question: And the Activity (Mus musculus [15])?
Answer: Its Activity is 5.62 mM.

Question: What about the Activity (Mus musculus [16]) of the same compound?
Answer: Its Activity is 8.82 mM.

Question: And the Activity (Mus musculus [17])?
Answer: Its Activity is “Dde”.

Question: And the Activity (Mus musculus [18])?
Answer: The Activity was 182.66 µM.

Question: And the “inhibition (INH)” value [19]?
Answer: The value was “Active”.

Question: What about the Activity (Mus musculus [20]) of the same compound?
Answer: The Activity was over 50%.

Question: What about the Activity (Mus musculus [21]) of the same compound?
Answer: Its Activity is 38.81 µM.

Question: And the IC50 [22]?
Answer: Its IC50 is 1370 nM.

Question: And the Activity (Mus musculus [23])?
Answer: Its Activity is “Active”.

Question: What about the inhibition (HK-2 [24]) of the same compound?
Answer: Its inhibition is “Dde”.

Question: And the Activity (Mus musculus [25])?
Answer: Its Activity is 10.05 mM.

Question: And the Activity (HK-2 [26])?
Answer: Its Activity is “Active”.

Question: And the remaining at 4 h [27]?
Answer: The remaining at 4 h was 47.6%.

Question: What about the Activity (Mus musculus [28]) of the same compound?
Answer: The Activity was “Active”.

Question: What about the Activity (Mus musculus [29]) of the same compound?
Answer: The Activity was 188.16 µM.

Question: And the inhibition (Mus musculus [30])?
Answer: The inhibition was “Dde”.

Question: And the Activity (Mus musculus [31])?
Answer: Its Activity is “Active”.
